The values that follow come from patent publication US20020142940A1, “Method of inhibiting viral infection using HMG-COA reductase inhibitors and isoprenylation inhibitors” (priority 2000, published 2002).

Several values for one entry are separate records, joined by “and”; a condition that tells them apart may be missing. Equal values may be shown once. Entries after “also recorded” stand apart in the source; their conditions may differ.

The test system of data set [1] is HPIV-3. The data set is described as follows: HPIV-3 syncytia formation in HEp-2 cells. It counts as cell-based. The settings on record: for rescue of lovastatin inhibition of HPIV-3 syncytia formation: added to lovastatin treated cells.
The test system of data set [2] is HPIV-3. Nature of the data set: HPIV-3 replication in HEp-2 cells, plaque assay. It counts as cell-based. The settings on record: for reduction of HPIV-3 replication: 5 μM, 24 hrs treatment, MOI 0.1, titer 2 days after infection; for rescue of lovastatin inhibition of HPIV-3 replication: added to 10 μM lovastatin treated cells, 50 μM GGP, mevalonolactone or FP, cholesterol concentration not given.

The test system of data set [3] is RSV. Nature of the data set: RSV replication in mice, lung plaque assay. It counts as in vivo. The settings on record: for peak RSV titer in the lung: mice, oral gavage beginning three days prior to infection, 1 mg/day lovastatin or 50 mg/day gemfibrozil, lungs day 4.
The subject of data set [4] is vaccinia virus. Type of data set: in vivo, mice. The settings on record: 1 mg/day lovastatin or 50 mg/day gemfibrozil oral gavage beginning three days prior to infection, vs PBS.
The nature of data set [5]: Weight loss in uninfected treated mice. Type of data set: in vivo. The settings on record: 1 mg/day lovastatin or 50 mg/day gemfibrozil for 11 days.
The test system of data set [6] is RSV. Nature of the data set: RSV-induced weight loss and illness in mice. The settings on record: for peak percent weight loss on day 8 post infection: comparison PBS, gemfibrozil, lovastatin treated RSV-infected mice. Type of data set: in vivo.
The test system of data set [7] is HIV-1. The settings on record: human H9 lymphocytic cell line, early stages of infection; cited from earlier work.
The subject of data set [8] is RSV glycoproteins F, G and SH. Type of data set: cell-based.
Data set [9] has as its system RSV. Nature of the data set: RSV replication in HEp-2 cell culture, plaque assay. It counts as cell-based. On the procedure: FIG. 5—Lovastatin eliminates RSV replication in cell culture. HEp-2 cell monolayers grown in 96 well plates were treated with either 10 μM lovastatin or left untreated beginning 24 hr prior to RSV infection (moi 0.1). Virus titer was measured for 8 consecutive days after RSV infection daily by plaque assay for eight days post RSV infection by harvesting the entire contents of a well and performing plaque assays in triplicate. RSV growth curve in untreated cells (□) and in cells treated with 10 μM lovastatin ( ? ). Error bars represent standard deviation.
Virus and Cells. The A2 strain of RSV was provided by Dr. R. Chanock, NIH, Bethesda, Md. RSV stocks were prepared as previously described (Graham et al., 1988). HEp-2 cells were maintained in Eagle's minimal essential media supplemented with glutamine, gentamicin, penicillin G, and 10% fetal bovine serum (FBS).
Plaque assay. Two-day-old HEp-2 monolayers, 80% confluent in 12-well plates (Costar, Cambridge, Mass.) were used for plaque assay. The assay was done as previously described (Graham et al., 1988).
Lovastatin eliminates RSV replication in HEp-2 cells. Next, the inventors asked whether lovastatin could alter RSV replication in cell culture. HEp-2 cells in a 96-well plate were treated with either 10 μM lovastatin or left untreated beginning 24 hr prior to RSV infection. […]

Data set [10] has as its system HIV. The settings on record: cultured MT-2 cells; reported in U.S. Ser. No. 09/129,565; cited from earlier work.
Setting [11] is: 5 μM, beginning 24 hr prior to infection, MOI 0.1, two days post infection.
Setting [12] is: 10 μM lovastatin beginning 24 hr prior to infection, MOI 0.1.

As to `COC(=O)[C@H](CCSC)NC(=O)c1ccc(NC[C@@H](N)CS)cc1-c1ccccc1` [FTI-277], the HPIV-3-induced syncytia formation entry in [1] (setting [11]) is “does not inhibit”. The “reduction of HPIV-3 replication” value in data set [2] amounted to 10 fold.

On to `COC(=O)[C@H](CC(C)C)NC(=O)c1ccc(NC[C@@H](N)CS)cc1-c1cccc2ccccc12` [GGTI-298], for which the HPIV-3-induced syncytia formation result in [1] (setting [11]) is listed as “blocked”. In addition, the “reduction of HPIV-3 replication” value in data set [2] was found to be 100 fold.

Consider `CC(C)CCC[C@@H](C)[C@H]1CC[C@H]2[C@@H]3CC=C4C[C@@H](O)CC[C@]4(C)[C@H]3CC[C@]12C` [cholesterol], for which the “rescue of lovastatin inhibition of HPIV-3 replication” value in data set [2] was “cannot rescue the inhibition”.

Regarding `CC(C)=CCC/C(C)=C/CC/C(C)=C/COP(=O)(O)OP(=O)(O)O` [farnesylpyrophosphate], the “rescue of lovastatin inhibition of HPIV-3 syncytia formation” value in data set [1] is listed as “does not rescue the inhibition”. Besides, in data set [2], the “rescue of lovastatin inhibition of HPIV-3 replication” value was “partially restores”.

`Cc1ccc(C)c(OCCCC(C)(C)C(=O)O)c1` [gemfibrozil]: the “inhibition of RSV replication in mice” value in data set [3] (50 mg/day gemfibrozil oral gavage (FIG. 1)) is “does not inhibit RSV replication”. The “peak RSV titer in the lung” value in data set [3] was 6.5+/−0.43 log10 pfu/gm. Moreover, the “effect on vaccinia replication” value in [4] is recorded as “not effected”. The “weight loss in uninfected mice” value in data set [5] is reported as “no significant weight loss”. The “peak percent weight loss on day 8 post infection” value in [6] was 40%.

Take `CC(C)=CCC/C(C)=C/CC/C(C)=C/CC/C(C)=C/COP(=O)(O)OP(=O)(O)O` [geranylgeranylpyrophosphate]: the “rescue of lovastatin inhibition of HPIV-3 syncytia formation” value in data set [1] was “rescues the inhibition”. Also, in data set [2], the “rescue of lovastatin inhibition of HPIV-3 replication” value is on record as “rescues the inhibition”.

For the compound `CC[C@H](C)C(=O)O[C@H]1C[C@@H](C)C=C2C=C[C@H](C)[C@H](CC[C@@H]3C[C@@H](O)CC(=O)O3)[C@H]21` [lovastatin], the “reduction in RSV viral titer” value in data set [3] (1 mg/day lovastatin beginning 1 day after RSV infection) is recorded as 10 fold. Further, in [3] (1 mg/day lovastatin beginning 3 days after infection), the “reduction in RSV viral titer compared to untreated mice” value is reported as “no reduction”. The “RSV viral titer in the lung on day 4” value is 3.8+/−0.48 log10 pfu/gm in data set [3] (1 mg/day lovastatin beginning 3 days prior to infection) and 6.3+/−1.1 log10 pfu/gm in [3] (1 mg/day lovastatin starting 3 days after RSV infection). In data set [3] (1 mg/day lovastatin beginning 3 days prior to infection, day 4), the “reduction in RSV viral titer in lung compared to untreated mice” value was > 100 fold and 100- to 1000 fold. In addition, in data set [3] (1 mg/day lovastatin oral gavage beginning three days prior to infection, vs PBS/gemfibrozil (FIG. 1)), the “reduction of RSV replication” value was ~100 fold. The “inhibition of RSV replication, dose response” value in data set [3] (C57BL6 mice, 1 mg/day and 5 mg/day within 0.5 to 20 mg/day dose response) is reported as “inhibited RSV replication equivalently”. In addition, the “peak RSV titer in the lung” value in [3] was 4.7+/−0.4 log10 pfu/gm. For the same compound, the “reverse transcriptase activity in H9 cells infected with HIV-1” value in data set [7] is reported as “decrease in reverse transcriptase activity”. Also, the “diminution of virus-induced cell-to-cell fusion” value in data set [8] is on record as “greater than 50%”. Besides, the “fusion events per well” value in [8] was 75+/−11 fusion events per well. Also, the HPIV-3-induced syncytia formation result in [1] (setting [12]) was “blocked”. In [4], the “effect on vaccinia replication” value is recorded as “not effected; also recorded: does not inhibit vaccinia virus replication”. Besides, the “RSV replication in HEp-2 cells” value in data set [9] (10 μM lovastatin beginning 24 hr prior to RSV infection (moi 0.1), titer for 8 days) is “completely inhibited”. The HPIV-3 replication result in data set [2] (setting [12]) was “completely blocks”. The “weight loss in uninfected mice” value in [5] is “no significant weight loss”. Further, the “peak weight loss 8 days post infection” value in [6] (1 mg/day lovastatin 1 day post infection) amounted to 22%; in data set [6] (1 mg/day lovastatin 1 day prior to infection) it was 19%; in data set [6] (1 mg/day lovastatin 3 days prior to infection), 17%. Besides, in [6] (1 mg/day lovastatin 3 days after RSV infection), the “peak percent weight loss at 8 days post infection” value was “about 30%”. Moreover, the “peak percent weight loss on day 8 post infection” value in [6] was 19%. The RSV-induced illness result in data set [6] (lovastatin treatment, data not shown) is recorded as “reduces RSV-induced illness”.

Consider `C[C@@]1(O)CCOC(=O)C1` [mevalonolactone], for which the “rescue of lovastatin inhibition of HPIV-3 syncytia formation” value in data set [1] is “rescues the inhibition”. The “rescue of lovastatin inhibition of RSV replication” value in data set [9] (10 μM lovastatin for 24 hr followed by 20 μM mevalonolactone) is listed as “can be rescued”. The “rescue of lovastatin inhibition of HPIV-3 replication” value in data set [2] is recorded as “rescues the inhibition”.

Consider “RhoA77-95: peptide comprising the sequence of amino acids 77-95 of RhoA (TDVILMCFSIDSPDSLENI; UniProt P61586 77-95, looked up, fragment)”, for which the “HIV infection and syncytia formation” value in [10] was “inhibit both infection and syncytia formation”.
